# According to US11384055B2 (BIOMARIN PHARMACEUTICAL INC., priority 2017, dated 2022):
# Target: T1, Human GO (Homo sapiens, UniProt Q9UJM8)
# T1 construct: purchased Novus Biologicals NBP1-72412
# T1 sequence (Q9UJM8 1-370): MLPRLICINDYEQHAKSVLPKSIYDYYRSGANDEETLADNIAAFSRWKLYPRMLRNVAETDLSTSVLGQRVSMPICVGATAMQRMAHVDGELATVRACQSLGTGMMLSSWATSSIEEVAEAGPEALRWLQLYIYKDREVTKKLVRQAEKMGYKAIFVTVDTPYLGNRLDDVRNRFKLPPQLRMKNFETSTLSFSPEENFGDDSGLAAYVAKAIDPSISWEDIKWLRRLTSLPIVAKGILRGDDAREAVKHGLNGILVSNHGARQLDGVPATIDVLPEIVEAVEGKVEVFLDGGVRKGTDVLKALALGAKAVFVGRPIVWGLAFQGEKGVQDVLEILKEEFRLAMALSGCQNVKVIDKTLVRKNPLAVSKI
# Assay: GO enzymatic assay (coupled fluorescence/HRP assay, glycolate substrate)
# Assay type: biochemical
# Conditions: not given
# Procedure, shortened: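 Coupled HRP/fluorescence read-out of glycolate oxidation by human GO in 50 mM potassium phosphate buffer (pH 7). Inhibitors added across a concentration range.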
row,SMILES,IC50 [nM]
1,"O=C(O)c1[nH]nnc1Oc1ccc(C2CCCCC2)cc1 [Compound 273, 4-(4-cyclohexylphenoxy)-1H-1,2,3-triazole-5-carboxylic acid]",< 100

# Same assay, conditions: Table 2; read-out: Range (range of IC50 values calculated from the enzymatic assays)
row,SMILES,IC50 [nM]
1,"O=C(O)c1[nH]nnc1Oc1ccc(-c2ccc3cnccc3c2)cc1 [Compound 257, 4-(4-(isoquinolin-6-yl)phenoxy)-1H-1,2,3-triazole-5-carboxylic acid]",< 100
2,"CC(C)(C)C(=O)OCOC(=O)c1[nH]nnc1OC1CCc2cc(Cl)c(Cl)cc2C1 (centres unmarked) [Compound 258, (pivaloyloxy)methyl 4-((6,7-dichloro-1,2,3,4-tetrahydronaphthalen-2-yl)oxy)-1H-1,2,3-triazole-5-carboxylate]",1000 to 10000
3,"CC(=O)NCCOc1cccc(-c2ccc(Oc3nn[nH]c3C(=O)O)cc2)c1 [Compound 259, 4-((3′-(2-acetamidoethoxy)-[1,1′-biphenyl]-4-yl)oxy)-1H-1,2,3-triazole-5-carboxylic acid]",< 100
4,"O=C(O)c1[nH]nnc1OC1CCN(c2ccc3cnccc3c2)CC1 [Compound 260, 4-((1-(isoquinolin-6-yl)piperidin-4-yl)oxy)-1H-1,2,3-triazole-5-carboxylic acid 2,2,2-trifluoroacetate]",100 to 1000
5,"O=C(OCOC(=O)c1[nH]nnc1OC1CCc2cc(Cl)c(Cl)cc2C1)c1ccccc1 (centres unmarked) [Compound 261, (benzoyloxy)methyl 4-((6,7-dichloro-1,2,3,4-tetrahydronaphthalen-2-yl)oxy)-1H-1,2,3-triazole-5-carboxylate]",1000 to 10000
6,"O=C(O)c1[nH]nnc1Oc1cccc(OCC2CC2)c1 [Compound 262, 4-(3-(cyclopropylmethoxy)phenoxy)-1H-1,2,3-triazole-5-carboxylic acid 2,2,2-trifluoroacetate]",< 100
7,"O=C(O)c1[nH]nnc1Oc1ccc(C2CCOCC2)cc1 [Compound 263, 4-(4-(tetrahydro-2H-pyran-4-yl)phenoxy)-1H-1,2,3-triazole-5-carboxylic acid 2,2,2-trifluoroacetate]",< 100
8,"O=C(O)c1[nH]nnc1COc1ccc(Cl)c(Cl)c1 [Compound 264, 4-((3,4-dichlorophenoxy)methyl)-1H-1,2,3-triazole-5-carboxylic acid 2,2,2-trifluoroacetate]",< 100
9,"O=C(O)c1[nH]nnc1COc1ccc(-c2ccc(OC(F)(F)F)cc2)cc1 [Compound 265, 4-(((4′-(trifluoromethoxy)-[1,1′-biphenyl]-4-yl)oxy)methyl)-1H-1,2,3-triazole-5-carboxylic acid]",< 100
10,"O=C(O)c1[nH]nnc1COc1ccc(-c2ccc(Cl)c(Cl)c2)cc1 [Compound 266, 4-(((3′,4′-dichloro-[1,1′-biphenyl]-4-yl)oxy)methyl)-1H-1,2,3-triazole-5-carboxylic acid 2,2,2-trifluoroacetate]",< 100
11,"CCC(=O)OCOC(=O)c1[nH]nnc1OC1CCc2cc(Cl)c(Cl)cc2C1 (centres unmarked) [Compound 267, (propionyloxy)methyl 4-((6,7-dichloro-1,2,3,4-tetrahydronaphthalen-2-yl)oxy)-1H-1,2,3-triazole-5-carboxylate]",< 100
12,"O=C(O)c1[nH]nnc1Oc1ccc(C2CC(F)(F)C2)cc1 [Compound 268, 4-(4-(3,3-difluorocyclobutyl)phenoxy)-1H-1,2,3-triazole-5-carboxylic acid]",< 100
13,"O=C(O)c1[nH]nnc1OCc1ccc(Cl)c(Cl)c1 [Compound 269, 4-((3,4-dichlorobenzyl)oxy)-1H-1,2,3-triazole-5-carboxylic acid]",< 100
14,"O=C(O)c1[nH]nnc1OC1CCN(c2ccc(Cl)cc2)CC1 [Compound 270, 4-((1-(4-chlorophenyl)piperidin-4-yl)oxy)-1H-1,2,3-triazole-5-carboxylic acid 2,2,2-trifluoroacetate]",< 100
15,"O=C(O)c1[nH]nnc1OC1Cc2cc(F)c(F)cc2C1 [Compound 271, 4-((5,6-difluoro-2,3-dihydro-1H-inden-2-yl)oxy)-1H-1,2,3-triazole-5-carboxylic acid]",< 100
16,"O=C(O)c1[nH]nnc1OCc1ccc(-c2ccc(OC(F)(F)F)cc2)cc1 [Compound 274, 4-((4′-(trifluoromethoxy)-[1,1′-biphenyl]-4-yl)methoxy)-1H-1,2,3-triazole-5-carboxylic acid]",< 100
17,"O=C(O)c1[nH]nnc1OC1CCC(c2ccc(OC(F)(F)F)cc2)C1 (centres unmarked) [Compound 275, 4-((3-(4-(trifluoromethoxy)phenyl)cyclopentyl)oxy)-1H-1,2,3-triazole-5-carboxylic acid]",< 100
18,"O=C(O)c1[nH]nnc1SC1CCc2cc(Cl)c(Cl)cc2C1 (centres unmarked) [Compound 277, 4-((6,7-dichloro-1,2,3,4-tetrahydronaphthalen-2-yl)thio)-1H-1,2,3-triazole-5-carboxylic acid]",< 100

row,SMILES,IC50 [nM]
1,"O=C(OCOC(=O)c1[nH]nnc1Sc1ccc(-c2ccc(N3CCCCC3)cc2)cc1)c1ccccc1 [Compound 278, (benzoyloxy)methyl 4-((4′-(piperidin-1-yl)-[1,1′-biphenyl]-4-yl)thio)-1H-1,2,3-triazole-5-carboxylate]",1000 to 10000
2,"O=C(O)c1[nH]nnc1Oc1ccc(C2CCC(F)(F)CC2)cc1 [Compound 279, 4-(4-(4,4-difluorocyclohexyl)phenoxy)-1H-1,2,3-triazole-5-carboxylic acid]",< 100
3,"O=C(O)c1[nH]nnc1OC1CCC2(CC1)CC2 [Compound 280, 4-(spiro[2.5]octan-6-yloxy)-1H-1,2,3-triazole-5-carboxylic acid 2,2,2-trifluoroacetate]",< 100
4,"CC1(C)CCCc2cc(Oc3nn[nH]c3C(=O)O)ccc21 [Compound 281, 4-((5,5-dimethyl-5,6,7,8-tetrahydronaphthalen-2-yl)oxy)-1H-1,2,3-triazole-5-carboxylic acid]",100 to 1000
5,"O=C(O)c1[nH]nnc1OC1Cc2ccc(OC(F)(F)F)cc2C1 (centres unmarked) [Compound 282, 4-((5-(trifluoromethoxy)-2,3-dihydro-1H-inden-2-yl)oxy)-1H-1,2,3-triazole-5-carboxylic acid]",< 100
6,"O=C(O)c1[nH]nnc1OC1CCC2(CCCCC2)CC1 [Compound 283, 4-(spiro[5.5]undecan-3-yloxy)-1H-1,2,3-triazole-5-carboxylic acid]",< 100
7,"O=C(O)c1[nH]nnc1OC1CCC2(CCCC2)CC1 [Compound 284, 4-(spiro[4.5]decan-8-yloxy)-1H-1,2,3-triazole-5-carboxylic acid]",< 100
8,"O=C(O)c1[nH]nnc1OC1CCN(c2cc(Cl)cc(Cl)c2)CC1 [Compound 285, 4-((1-(3,5-dichlorophenyl)piperidin-4-yl)oxy)-1H-1,2,3-triazole-5-carboxylic acid 2,2,2-trifluoroacetate]",< 100
9,"O=C(O)c1[nH]nnc1OC1CCN(c2ccc(Cl)c(Cl)c2)CC1 [Compound 286, 4-((1-(3,4-dichlorophenyl)piperidin-4-yl)oxy)-1H-1,2,3-triazole-5-carboxylic acid 2,2,2-trifluoroacetate]",< 100
10,"O=C(O)c1[nH]nnc1OC1CCN(c2ccc(C(F)(F)F)cc2)CC1 [Compound 287, 4-((1-(4-(trifluoromethyl)phenyl)piperidin-4-yl)oxy)-1H-1,2,3-triazole-5-carboxylic acid 2,2,2-trifluoroacetate]",< 100
11,"O=C(O)c1[nH]nnc1Oc1cc(OCC2CC2)cc(C(F)(F)F)c1 [Compound 288, 4-(3-(cyclopropylmethoxy)-5-(trifluoromethyl)phenoxy)-1H-1,2,3-triazole-5-carboxylic acid]",100 to 1000
12,"O=C(O)c1[nH]nnc1Oc1cc(Cl)cc(OCC2CC2)c1 [Compound 289, 4-(3-chloro-5-(cyclopropylmethoxy)phenoxy)-1H-1,2,3-triazole-5-carboxylic acid 2,2,2-trifluoroacetate]",< 100
13,"O=C(O)c1[nH]nnc1Oc1cccc(OCC2CCCC2)c1 [Compound 290, 4-(3-(cyclopentylmethoxy)phenoxy)-1H-1,2,3-triazole-5-carboxylic acid 2,2,2-trifluoroacetate]",< 100
14,"O=C(O)c1[nH]nnc1OC1CCN(c2cc(Cl)ccc2Cl)CC1 [Compound 291, 4-((1-(2,5-dichlorophenyl)piperidin-4-yl)oxy)-1H-1,2,3-triazole-5-carboxylic acid 2,2,2-trifluoroacetate]",< 100
15,"O=C(O)c1[nH]nnc1Oc1ccc(Cl)c(OCC2CC2)c1 [Compound 292, 4-(4-chloro-3-(cyclopropylmethoxy)phenoxy)-1H-1,2,3-triazole-5-carboxylic acid]",< 100
16,"O=C(O)c1[nH]nnc1Oc1cc(OCC2CC2)ccc1Cl [Compound 293, 4-(2-chloro-5-(cyclopropylmethoxy)phenoxy)-1H-1,2,3-triazole-5-carboxylic acid]",< 100
17,"O=C(O)c1[nH]nnc1Oc1ccc(C(F)(F)F)c(OCC2CC2)c1 [Compound 295, 4-(3-(cyclopropylmethoxy)-4-(trifluoromethyl)phenoxy)-1H-1,2,3-triazole-5-carboxylic acid]",< 100

# Same assay, conditions: Table 3; read-out: Range (range of IC50 values calculated from the enzymatic assays)
row,SMILES,IC50 [nM]
1,"O=C(O)c1[nH]nnc1OC(Cc1ccc(Cl)cc1)Cc1ccc(Cl)cc1 [Compound 294, 4-((1,3-bis(4-chlorophenyl)propan-2-yl)oxy)-1H-1,2,3-triazole-5-carboxylic acid]",< 100
2,"O=C(O)c1[nH]nnc1OC(CCc1ccccc1)c1ccccc1 (centres unmarked) [Compound 296, 4-(1,3-diphenylpropoxy)-1H-1,2,3-triazole-5-carboxylic acid]",> 10000
